Patent publication US7700577B2, “Carbohydrate based anti-bacterials” (Alchemia Limited, priority 2002, dated 2010)

How the values were obtained:
S. aureus = assay: MIC testing, broth microdilution (NCCLS), S. aureus; assay type: cell-based, Staphylococcus aureus; details: for SA24 (MIC): S. aureus after 24 hours exposure
Text: (§1) The broth microdilution format of the National Committee for Clinical Laboratory Standards (NCCLS) approved standard for susceptibility tests as outlined in M7-A4 “methods for dillution Antimicrobial susceptibility tests for bacteria that grow aerobically; approved standard—fifth edition”, January 2000 was utilized for minimum inhibitory concentration testing in Mueller-Hinton broth. The broth for Streptococcus pyogenes testing was supplemented with 2% laked horse blood. A positive result in initial testing was determined by complete inhibition of macroscopic bacterial growth at a concentration of 128 micrograms per mL after incubation for 16 to 24 hours at 37 degrees C. In the case of Micrococcus luteus, incubation was at 30 degrees C. […] Bacterial Types Are: • SA24 S. aureus after 24 hours exposure • SA48 S. aureus after 48 hours exposure • EC24 E. coli after 24 hours exposure

[1] = tested on: Micrococcus luteus (ATCC272); assay: MIC testing, additional organisms: Micrococcus luteus; assay type: cell-based; details: incubation at 30 degrees C
Text: (§2) The broth microdilution format of the National Committee for Clinical Laboratory Standards (NCCLS) approved standard for susceptibility tests as outlined in M7-A4 “methods for dillution Antimicrobial susceptibility tests for bacteria that grow aerobically; approved standard—fifth edition”, January 2000 was utilized for minimum inhibitory concentration testing in Mueller-Hinton broth. The broth for Streptococcus pyogenes testing was supplemented with 2% laked horse blood. A positive result in initial testing was determined by complete inhibition of macroscopic bacterial growth at a concentration of 128 micrograms per mL after incubation for 16 to 24 hours at 37 degrees C. In the case of Micrococcus luteus, incubation was at 30 degrees C.
(§3) Bacterial Types Are: • SA24 S. aureus after 24 hours exposure • SA48 S. aureus after 48 hours exposure • EC24 E. coli after 24 hours exposure
(§4) The following compounds were tested against additional organisims with the following results. • 1. Micrococcus luteus (ATCC272) • 2. Staphylococcus aureus (ATCC29213) • 3. Staphylococcus aureus (ATCC43300) MRSA • 4. Enterococcus faecalis (ATCC29212) • 5. Enterococcus faecalis (ATCCS 1299) Vancomycin resistant • 6. Streptococcus pyrogenes (ATCC8668)

[2] = tested on: Staphylococcus aureus (ATCC29213); assay: MIC testing, additional organisms: Staphylococcus aureus ATCC29213; assay type: cell-based
Text: as §2, §3, §4

[3] = tested on: Staphylococcus aureus (ATCC43300) MRSA; assay: MIC testing, additional organisms: Staphylococcus aureus MRSA; assay type: cell-based
Text: as §2, §3, §4

[4] = tested on: Enterococcus faecalis (ATCC29212); assay: MIC testing, additional organisms: Enterococcus faecalis ATCC29212; assay type: cell-based
Text: as §2, §3, §4

[5] = tested on: Enterococcus faecalis (ATCCS 1299) Vancomycin resistant; assay: MIC testing, additional organisms: Enterococcus faecalis vancomycin resistant; assay type: cell-based
Text: as §2, §3, §4

[6] = tested on: Streptococcus pyrogenes (ATCC8668); assay: MIC testing, additional organisms: Streptococcus pyrogenes; assay type: cell-based; details: broth supplemented with 2% laked horse blood
Text: as §2, §3, §4

E. coli = assay: MIC testing, broth microdilution (NCCLS), E. coli; assay type: cell-based; details: E. coli after 24 hours exposure
Text: as §1

Structure (SMILES)	SA24 (MIC) (S. aureus)	MIC, organism 1 [1]	MIC, organism 2 [2]	MIC, organism 3 [3]	MIC, organism 4 [4]	MIC, organism 5 [5]	MIC, organism 6 [6]	SA48 (MIC) (S. aureus; S. aureus after 48 hours exposure)	EC24 (MIC) (E. coli)
O=C(Nc1cccc(C(F)(F)F)c1)NC1COC(CO)C(NC(=O)c2ccc(Oc3ccccc3)cc2)C1OC1OC(CO)C(O)C(O)C1NC(=O)Nc1cccc(C(F)(F)F)c1 (stereo not drawn) [compound 73]	+ (+ indicates an MIC value of less than 128 micrograms per mL)	+ (+ indicates an MIC value of less than 128 micrograms per mL)	+ (+ indicates an MIC value of less than 128 micrograms per mL)	+ (+ indicates an MIC value of less than 128 micrograms per mL)	+ (+ indicates an MIC value of less than 128 micrograms per mL)	+ (+ indicates an MIC value of less than 128 micrograms per mL)	+ (+ indicates an MIC value of less than 128 micrograms per mL)	–	–
O=C(Nc1cccc(C(F)(F)F)c1)NC1COC(CO)C(NC(=O)c2ccc(-c3ccccc3)cc2)C1OC1OC(CO)C(O)C(O)C1NC(=O)Nc1cccc(C(F)(F)F)c1 (stereo not drawn) [compound 74]	+ (+ indicates an MIC value of less than 128 micrograms per mL)	+ (+ indicates an MIC value of less than 128 micrograms per mL)	+ (+ indicates an MIC value of less than 128 micrograms per mL)	+ (+ indicates an MIC value of less than 128 micrograms per mL)	+ (+ indicates an MIC value of less than 128 micrograms per mL)	+ (+ indicates an MIC value of less than 128 micrograms per mL)	+ (+ indicates an MIC value of less than 128 micrograms per mL)	–	–
CCCCCCCCCCCCC(=O)NC1C(CO)OCC(NC(=O)Nc2cccc(C(F)(F)F)c2)C1OC1OC(CO)C(O)C(O)C1NC(=O)Nc1cccc(C(F)(F)F)c1 (stereo not drawn) [compound 76]	+ (+ indicates an MIC value of less than 128 micrograms per mL)	+ (+ indicates an MIC value of less than 128 micrograms per mL)	+ (+ indicates an MIC value of less than 128 micrograms per mL)	+ (+ indicates an MIC value of less than 128 micrograms per mL)	+ (+ indicates an MIC value of less than 128 micrograms per mL)	+ (+ indicates an MIC value of less than 128 micrograms per mL)	+ (+ indicates an MIC value of less than 128 micrograms per mL)	–	–
CCCCCCCCCCC(=O)NC1C(CO)OCC(NC(=O)Nc2cccc(C(F)(F)F)c2)C1OC1OC(CO)C(O)C(O)C1NC(=O)Nc1cccc(C(F)(F)F)c1 (stereo not drawn) [compound 77]	+ (+ indicates an MIC value of less than 128 micrograms per mL)	+ (+ indicates an MIC value of less than 128 micrograms per mL)	+ (+ indicates an MIC value of less than 128 micrograms per mL)	+ (+ indicates an MIC value of less than 128 micrograms per mL)	+ (+ indicates an MIC value of less than 128 micrograms per mL)	+ (+ indicates an MIC value of less than 128 micrograms per mL)	+ (+ indicates an MIC value of less than 128 micrograms per mL)	+ (+ indicates an MIC value of less than 128 micrograms per mL)	− (− indicates an MIC of greater then 128 micrograms per mL)
